Reference: PMC11352961, “Peptide dendrimers transfecting CRISPR/Cas9 plasmid DNA: optimization and mechanism” (RSC Chemical Biology, 2024)
Bridge positions count the residues as written; N and C are the ends. Square brackets hold non-standard residues; d marks the D form. Side chains are listed from the residue outwards. Peptide text beside a SMILES is read from it. I, II: the chains in the order shown. * marks the point of attachment. Stearoyl = CCCCCCCCCCCCCCCCCC(=O)*; Palmitoyl = CCCCCCCCCCCCCCCC(=O)*

Tests used:
[1] = system: HeLa cells; test: Cell viability by PrestoBlue assay after transfection, HeLa cells; format: cell-based; details: 4 h
[2] = system: HEK293 cells; test: Cell viability by PrestoBlue assay after transfection, HEK cells; format: cell-based; details: 4 h

Row | SMILES | % viability HeLa cells [1] [%] | % viability HEK cells [2] [%]
1 | CC(C)C[C@@H](NC(=O)[C@@H](CC(C)C)NC(=O)[C@@H](CC(C)C)NC(=O)[C@@H](CC(C)C)NC(=O)[C@@H](CC(C)C)NC(=O)[C@@H](CCCCNC(=O)[C@@H](CC(C)C)NC(=O)[C@@H](CCCCN)NC(=O)[C@@H](CCCCNC(=O)[C@@H](CC(C)C)NC(=O)[C@@H](CCCCN)NC(=O)[C@@H](CCCCNC(=O)[C@@H](CC(C)C)NC(=O)[C@H](N)CCCCN)NC(=O)[C@@H](CC(C)C)NC(=O)[C@H](N)CCCCN)NC(=O)[C@@H](CC(C)C)NC(=O)[C@@H](CCCCN)NC(=O)[C@@H](CCCCNC(=O)[C@@H](CC(C)C)NC(=O)[C@H](N)CCCCN)NC(=O)[C@@H](CC(C)C)NC(=O)[C@H](N)CCCCN)NC(=O)[C@@H](CC(C)C)NC(=O)[C@@H](CCCCN)NC(=O)[C@@H](CCCCNC(=O)[C@@H](CC(C)C)NC(=O)[C@@H](CCCCN)NC(=O)[C@@H](CCCCNC(=O)[C@@H](CC(C)C)NC(=O)[C@H](N)CCCCN)NC(=O)[C@@H](CC(C)C)NC(=O)[C@H](N)CCCCN)NC(=O)[C@@H](CC(C)C)NC(=O)[C@@H](CCCCN)NC(=O)[C@@H](CCCCNC(=O)[C@@H](CC(C)C)NC(=O)[C@H](N)CCCCN)NC(=O)[C@@H](CC(C)C)NC(=O)[C@H](N)CCCCN)C(N)=O [Z28] (I: H-[dK][dL][dK]([dL-dK])[dK][dL][dK][dK][dL][dK][dL][dL][dL][dL][dL]-NH2 / II: H-[dK][dL][dK]([dL-dK])[dK][dL][dK][dK][dL] / III: H-[dK][dL][dK]([dL-dK])[dK][dL] / IV: H-[dK][dL][dK]([dL-dK])[dK][dL]; amide I:6-IV:C, I:9-II:C, II:6-III:C) | 101 ± 7 | 103 ± 0.2
2 | CCCCCCCCCCCCCCCC(=O)NCCCC[C@@H](NC(=O)[C@@H](CCCCNC(=O)[C@@H](CC(C)C)NC(=O)[C@@H](CCCCN)NC(=O)[C@@H](CCCCNC(=O)[C@@H](CC(C)C)NC(=O)[C@@H](CCCCN)NC(=O)[C@@H](CCCCNC(=O)[C@@H](CC(C)C)NC(=O)[C@H](N)CCCCN)NC(=O)[C@@H](CC(C)C)NC(=O)[C@H](N)CCCCN)NC(=O)[C@@H](CC(C)C)NC(=O)[C@@H](CCCCN)NC(=O)[C@@H](CCCCNC(=O)[C@@H](CC(C)C)NC(=O)[C@H](N)CCCCN)NC(=O)[C@@H](CC(C)C)NC(=O)[C@H](N)CCCCN)NC(=O)[C@@H](CC(C)C)NC(=O)[C@@H](CCCCN)NC(=O)[C@@H](CCCCNC(=O)[C@@H](CC(C)C)NC(=O)[C@@H](CCCCN)NC(=O)[C@@H](CCCCNC(=O)[C@@H](CC(C)C)NC(=O)[C@H](N)CCCCN)NC(=O)[C@@H](CC(C)C)NC(=O)[C@H](N)CCCCN)NC(=O)[C@@H](CC(C)C)NC(=O)[C@@H](CCCCN)NC(=O)[C@@H](CCCCNC(=O)[C@@H](CC(C)C)NC(=O)[C@H](N)CCCCN)NC(=O)[C@@H](CC(C)C)NC(=O)[C@H](N)CCCCN)C(N)=O [Z29] (I: H-[dK][dL][dK]([dL-dK])[dK][dL][dK][dK][dL][dK][dK](Palmitoyl)-NH2 / II: H-[dK][dL][dK]([dL-dK])[dK][dL][dK][dK][dL] / III: H-[dK][dL][dK]([dL-dK])[dK][dL] / IV: H-[dK][dL][dK]([dL-dK])[dK][dL]; amide I:6-IV:C, I:9-II:C, II:6-III:C) | 95 ± 5 | 87 ± 1
3 | CCCCCCCCCCCCCCCCCC(=O)NCCCC[C@@H](NC(=O)[C@@H](CCCCNC(=O)[C@@H](CC(C)C)NC(=O)[C@@H](CCCCN)NC(=O)[C@@H](CCCCNC(=O)[C@@H](CC(C)C)NC(=O)[C@@H](CCCCN)NC(=O)[C@@H](CCCCNC(=O)[C@@H](CC(C)C)NC(=O)[C@H](N)CCCCN)NC(=O)[C@@H](CC(C)C)NC(=O)[C@H](N)CCCCN)NC(=O)[C@@H](CC(C)C)NC(=O)[C@@H](CCCCN)NC(=O)[C@@H](CCCCNC(=O)[C@@H](CC(C)C)NC(=O)[C@H](N)CCCCN)NC(=O)[C@@H](CC(C)C)NC(=O)[C@H](N)CCCCN)NC(=O)[C@@H](CC(C)C)NC(=O)[C@@H](CCCCN)NC(=O)[C@@H](CCCCNC(=O)[C@@H](CC(C)C)NC(=O)[C@@H](CCCCN)NC(=O)[C@@H](CCCCNC(=O)[C@@H](CC(C)C)NC(=O)[C@H](N)CCCCN)NC(=O)[C@@H](CC(C)C)NC(=O)[C@H](N)CCCCN)NC(=O)[C@@H](CC(C)C)NC(=O)[C@@H](CCCCN)NC(=O)[C@@H](CCCCNC(=O)[C@@H](CC(C)C)NC(=O)[C@H](N)CCCCN)NC(=O)[C@@H](CC(C)C)NC(=O)[C@H](N)CCCCN)C(=O)N[C@H](C)C(N)=O [Z30] (I: H-[dK][dL][dK]([dL-dK])[dK][dL][dK][dK][dL][dK][dK](Stearoyl)[dA]-NH2 / II: H-[dK][dL][dK]([dL-dK])[dK][dL][dK][dK][dL] / III: H-[dK][dL][dK]([dL-dK])[dK][dL] / IV: H-[dK][dL][dK]([dL-dK])[dK][dL]; amide I:6-IV:C, I:9-II:C, II:6-III:C) | 91 ± 8 | 75 ± 1
4 | CCCCCCCCCCCCCCCCCC(=O)NCCCC[C@@H](NC(=O)[C@@H](CCCCNC(=O)[C@@H](CC(C)C)NC(=O)[C@@H](CC(C)C)NC(=O)[C@@H](CCCCNC(=O)[C@@H](CC(C)C)NC(=O)[C@@H](CCCCN)NC(=O)[C@@H](CCCCNC(=O)[C@@H](CC(C)C)NC(=O)[C@H](N)CCCCN)NC(=O)[C@@H](CC(C)C)NC(=O)[C@H](N)CCCCN)NC(=O)[C@@H](CC(C)C)NC(=O)[C@@H](CCCCN)NC(=O)[C@@H](CCCCNC(=O)[C@@H](CC(C)C)NC(=O)[C@H](N)CCCCN)NC(=O)[C@@H](CC(C)C)NC(=O)[C@H](N)CCCCN)NC(=O)[C@@H](CC(C)C)NC(=O)[C@@H](CC(C)C)NC(=O)[C@@H](CCCCNC(=O)[C@@H](CC(C)C)NC(=O)[C@@H](CCCCN)NC(=O)[C@@H](CCCCNC(=O)[C@@H](CC(C)C)NC(=O)[C@H](N)CCCCN)NC(=O)[C@@H](CC(C)C)NC(=O)[C@H](N)CCCCN)NC(=O)[C@@H](CC(C)C)NC(=O)[C@@H](CCCCN)NC(=O)[C@@H](CCCCNC(=O)[C@@H](CC(C)C)NC(=O)[C@H](N)CCCCN)NC(=O)[C@@H](CC(C)C)NC(=O)[C@H](N)CCCCN)C(N)=O [Z31] (I: H-[dK][dL][dK]([dL-dK])[dK][dL][dK][dL][dL][dK][dK](Stearoyl)-NH2 / II: H-[dK][dL][dK]([dL-dK])[dK][dL][dK][dL][dL] / III: H-[dK][dL][dK]([dL-dK])[dK][dL] / IV: H-[dK][dL][dK]([dL-dK])[dK][dL]; amide I:6-IV:C, I:9-II:C, II:6-III:C) | 91 ± 6 | 96 ± 2
5 | CCCCCCCCCCCCCCCCCC(=O)NCCCC[C@@H](NC(=O)[C@@H](CCCCNC(=O)[C@@H](CC(C)C)NC(=O)[C@@H](CC(C)C)NC(=O)[C@@H](CCCCNC(=O)[C@@H](CC(C)C)NC(=O)[C@@H](CC(C)C)NC(=O)[C@@H](CCCCNC(=O)[C@@H](CC(C)C)NC(=O)[C@H](N)CCCCN)NC(=O)[C@@H](CC(C)C)NC(=O)[C@H](N)CCCCN)NC(=O)[C@@H](CC(C)C)NC(=O)[C@@H](CC(C)C)NC(=O)[C@@H](CCCCNC(=O)[C@@H](CC(C)C)NC(=O)[C@H](N)CCCCN)NC(=O)[C@@H](CC(C)C)NC(=O)[C@H](N)CCCCN)NC(=O)[C@@H](CC(C)C)NC(=O)[C@@H](CC(C)C)NC(=O)[C@@H](CCCCNC(=O)[C@@H](CC(C)C)NC(=O)[C@@H](CC(C)C)NC(=O)[C@@H](CCCCNC(=O)[C@@H](CC(C)C)NC(=O)[C@H](N)CCCCN)NC(=O)[C@@H](CC(C)C)NC(=O)[C@H](N)CCCCN)NC(=O)[C@@H](CC(C)C)NC(=O)[C@@H](CC(C)C)NC(=O)[C@@H](CCCCNC(=O)[C@@H](CC(C)C)NC(=O)[C@H](N)CCCCN)NC(=O)[C@@H](CC(C)C)NC(=O)[C@H](N)CCCCN)C(N)=O [Z32] (I: H-[dK][dL][dK]([dL-dK])[dL][dL][dK][dL][dL][dK][dK](Stearoyl)-NH2 / II: H-[dK][dL][dK]([dL-dK])[dL][dL][dK][dL][dL] / III: H-[dK][dL][dK]([dL-dK])[dL][dL] / IV: H-[dK][dL][dK]([dL-dK])[dL][dL]; amide I:6-IV:C, I:9-II:C, II:6-III:C) | 97 ± 4 | 111 ± 1
6 | CCCCCCCCCCCCCCCC(=O)NCCCC[C@@H](NC(=O)[C@@H](CCCCNC(=O)[C@@H](CC(C)C)NC(=O)[C@@H](CCCNC(=N)N)NC(=O)[C@@H](CCCCNC(=O)[C@@H](CC(C)C)NC(=O)[C@@H](CCCNC(=N)N)NC(=O)[C@@H](CCCCNC(=O)[C@@H](CC(C)C)NC(=O)[C@H](N)CCCNC(=N)N)NC(=O)[C@@H](CC(C)C)NC(=O)[C@H](N)CCCNC(=N)N)NC(=O)[C@@H](CC(C)C)NC(=O)[C@@H](CCCNC(=N)N)NC(=O)[C@@H](CCCCNC(=O)[C@@H](CC(C)C)NC(=O)[C@H](N)CCCNC(=N)N)NC(=O)[C@@H](CC(C)C)NC(=O)[C@H](N)CCCNC(=N)N)NC(=O)[C@@H](CC(C)C)NC(=O)[C@@H](CCCNC(=N)N)NC(=O)[C@@H](CCCCNC(=O)[C@@H](CC(C)C)NC(=O)[C@@H](CCCNC(=N)N)NC(=O)[C@@H](CCCCNC(=O)[C@@H](CC(C)C)NC(=O)[C@H](N)CCCNC(=N)N)NC(=O)[C@@H](CC(C)C)NC(=O)[C@H](N)CCCNC(=N)N)NC(=O)[C@@H](CC(C)C)NC(=O)[C@@H](CCCNC(=N)N)NC(=O)[C@@H](CCCCNC(=O)[C@@H](CC(C)C)NC(=O)[C@H](N)CCCNC(=N)N)NC(=O)[C@@H](CC(C)C)NC(=O)[C@H](N)CCCNC(=N)N)C(N)=O [Z33] (I: H-[dR][dL][dK]([dL-dR])[dR][dL][dK][dR][dL][dK][dK](Palmitoyl)-NH2 / II: H-[dR][dL][dK]([dL-dR])[dR][dL][dK][dR][dL] / III: H-[dR][dL][dK]([dL-dR])[dR][dL] / IV: H-[dR][dL][dK]([dL-dR])[dR][dL]; amide I:6-IV:C, I:9-II:C, II:6-III:C) | 93 ± 6 | 84 ± 1
